Data as given in patent US8779158B2, “Trisubstituted pyrazoles as acetylcholine receptor modulators” (Janssen Pharmaceutica NV, priority 2008, dated 2014).
pEC50: −log10 of the molar value.

Assays:
hα7-wt nAChR = target: T1, hα7-wt nAChR (Homo sapiens, UniProt P36544); experiment: Ca2+ flux imaging (FDSS) (Protocol B), potentiation of the choline response; assay type: cell-based; details: Ca2+ assay as described in D.1; for pEC50: "<5" = activity did not reach a top plateau at maximal concentration; for Emax: read-out: % Efficacy
T1 construct: expressed in transfected cells
Experimental: Ca^2+ Flux Imaging (FDSS) (Protocol B)
• Hanks buffered saline solution (HBSS, Invitrogen, Belgium), supplemented with 10 mM HEPES (Invitrogen, Belgium), CaCl2 to a final concentration of 5 mM, 0.1% Bovine serum albumin (Sigma-Aldrich NV, Belgium). b) Calcium-Sensitive Dye—Fluo-4AM • Fluo-4AM (Molecular Probes, USA) was dissolved in DMSO containing 10% Pluronic acid (Molecular Probes, USA) to give a stock solution which was diluted in assay buffer supplemented with 5 mM probenicid (Sigma, Aldrich NV, Belgium) to give a final concentration of 2 μM. c) 384-Well Plates • Black 384 well plate black/clear plates, PDL pre-coated (Corning, Incorporated, USA) d) Calcium Flux Measurement • A Functional drug screening system (FDSS, Hamamatsu) was used to measure intracellular free-calcium flux signals. Method
Monolayers of hα7-wt nAChR-expressing cells were grown in multi-well plates, in particular black-sided, transparent bottomed 384 well plates coated with poly-D-lysine for 24 hours prior to loading with a fluorescent calcium indicator, in a particular embodiment loading with fluo-4AM for up to 120 minutes.
PAM activity was detected in real time by applying the compounds to be tested to the loaded cells along with a α7 nicotinic receptor agonist during constant monitoring of cellular fluorescence in a FDSS. Compounds giving peak fluorescent responses greater than the response due to agonist alone, were considered to be α7 nAChR PAM's. In a particular embodiment, the α7 nicotinic receptor agonist was choline, a more particular embodiment choline applied at a sub-maximal concentration of 100 μM. In a further setting of the present invention the compounds to be tested were applied prior to the α7 nicotinic receptor agonist, in a particular embodiment up to 10 minutes prior to the agonist.
A control response to choline was calculated on each plate from the difference in peak in fluorescence in wells receiving either choline or assay buffer alone. Compounds of the present invention were tested at a concentration range from 0.01 μM to 30 μM. Compounds were considered to have an interesting activity when they potentiated the choline signal at least with 200% when tested at a concentration of 30 μM (the efficacy of 100 μM choline was defined as 100% in the absence of a PAM). An EC50 (or pEC50) was determined as a concentration relating to half the maximal effect, when a clear sigmoidal curve with top plateau was obtained.

[1] = target: T2, hα7-wt nAChR-expressing GH4C1 cells (Homo sapiens, UniProt P36544); experiment: Patch-clamp current recording (whole-cell voltage clamp), potentiation of the choline current and PAM type; assay type: cell-based; parameters: key: Type 0 compounds minimally enhance the effect size of the current elicited by 1 mM choline.; Type 1 compounds enhance the effect size of the current elicited by 1 mM choline but minimally alter the kinetics of the receptor.; Type 2 compounds enhance the effect size of the current elicited by 1 mM choline while reducing the rate and/or the extent of desensitization.; Type 3 compounds enhance the effect size of the current elicited by 1 mM choline. When tested at higher concentrations up to 10 μM they completely inhibit desensitization, in particular a 1 mM choline application of 250 milliseconds.; Type 4 compounds allow for an initial desensitization of the receptor followed by a re-opening of the receptor during agonist application; details: 1 mM choline
T2 construct: expressed in transfected cells
Experimental: The compounds of the present invention are classified as type 1-4, based on qualitative kinetic properties, as determined by whole-cell voltage-clamp recordings. This classification is based on the effect of an α7 PAM compound, as described hereinbefore, on the signal elicited by an agonist application. In particular, said agonist is choline at a concentration of 1 mM. In a preferred experimental setting, said α7 PAM compound and choline are simultaneously applied to the cell, as described hereinafter. Desensitization is defined as the closure of the receptor upon activation during the application of the agonist in whole-cell voltage-clamp electrophysiology measurements seen as the reduction of the […] current after initial activation by the agonist.
The definition of the PAM types 1-4 is described hereinafter: • Type 0 compounds minimally enhance the effect size of the current elicited by 1 mM choline. • Type 1 compounds enhance the effect size of the current elicited by 1 mM choline but minimally alter the kinetics of the receptor. In particular, the rate and the extent of desensitization, elicited by the agonist, is not affected. The compound-modulated response to 1 mM choline, therefore, is a close to linear scaling of the 1 mM choline response in absence of the α7 PAM compound. • Type 2 compounds enhance the effect size of the current elicited by 1 mM choline while reducing the rate and/or the extent of desensitization. • Type 3 compounds enhance the effect size of the current elicited by 1 mM choline. […] At low-potency concentrations of the α7 PAM compound, the agonist-induced activation, which is followed by desensitization, can still be separated from the compound-induced re-opening as an initial inward current-maximum. At higher potency concentrations of the α7 PAM compound, the re-opening occurs faster than the closure due to desensitization so that the initial current-maximum disappears.
A compound was considered to have interesting PAM-like activity when the potentiation of the peak current was at least 200% compared to the control choline response (=100%). Such compounds are classified as belonging to a particular PAM type in the Experimental Part. Compounds not meeting the condition are not classified as belonging to a particular PAM-type.
The compounds also have a potentiating effect on the response to choline when measured by whole-cell patch clamp electrophysiology in GH4C1 cells stably over-expressing the human wild-type α7 receptor.
Patch-Clamp Current Recording
Patch-clamp recording from mammalian cells has provided a powerful means of assessing the function of membrane-bound proteins thought to be subunits of ligand-gated ion channels. Activation of such proteins by endogenous or exogenous ligands cause opening of a pore associated with the receptor through which ions flow down their electrochemical gradient. In the case of the hα7-wt nAChR-expressing GH4C1 recombinant cell line the preferential permeability to calcium of this receptor means that calcium flows into the cell upon activation by ACh, choline and other nicotinic ligands giving rise to a calcium current. Since this receptor rapidly desensitizes in the presence of agonist it is important an application system is used which is capable of very rapid switching of solutions (<100 ms) to prevent partial or full desensitisation of receptor responses coincident with the time of agonist application. Consequently, a second convenient technique to assess the enhancement of nicotinic efficacy is patch-clamp recording from hα7-wt nAChR-expressing GH4C1 cells coupled with a rapid-application system.
• The external recording solution consisted of 152 mM NaCl, 5 mM KCl, 1 mM MgCl2, 1 mM Calcium, 10 mM HEPES; pH 7.3. […]

T2 sequence (P36544 23-502): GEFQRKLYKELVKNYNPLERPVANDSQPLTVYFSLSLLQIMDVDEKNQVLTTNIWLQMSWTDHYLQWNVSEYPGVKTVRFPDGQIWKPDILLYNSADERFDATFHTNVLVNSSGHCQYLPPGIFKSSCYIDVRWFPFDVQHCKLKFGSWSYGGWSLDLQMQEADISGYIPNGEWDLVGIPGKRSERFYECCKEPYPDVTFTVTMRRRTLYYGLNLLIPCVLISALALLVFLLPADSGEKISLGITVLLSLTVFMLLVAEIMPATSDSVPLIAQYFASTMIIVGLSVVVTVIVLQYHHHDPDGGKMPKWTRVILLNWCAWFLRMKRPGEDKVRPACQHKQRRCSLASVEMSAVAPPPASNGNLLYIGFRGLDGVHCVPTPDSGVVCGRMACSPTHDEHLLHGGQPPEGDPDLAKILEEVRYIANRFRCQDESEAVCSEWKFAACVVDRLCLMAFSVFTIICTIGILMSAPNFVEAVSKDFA
T1 sequence (P36544 23-502): as above

| pEC50 (hα7-wt nAChR) | Emax (hα7-wt nAChR) [%] | SMILES | PAM type [1] |
| --- | --- | --- | --- |
| 6.32 | 736 | Cc1cc(-c2cc(Nc3ccc4c(c3)OC(F)(F)O4)nn2CC(=O)NC2CC2)cc(C)n1 [compound 145] | 2 |
| 5.84 | 700 | Cc1cc(-c2cc(Nc3ccc(F)c(C(F)(F)F)c3)nn2C[C@H](C)O)ccn1 [compound 43] | 1 |
| 6.28 | – | Cc1cc(-c2cc(Nc3cccc(Cl)c3)nn2CCC(=O)N(C)C)cc(C)n1 [compound 56] | 2 |
| 5.93 | 633 | CC[C@H](O)Cn1nc(Nc2cccc(Cl)c2F)cc1-c1ccnc(C)c1 [compound 118] | 0 |
| 6.01 | – | Cc1cc(-c2cc(Nc3cccc(Cl)c3F)nn2CCC(=O)N(C)C)ccn1 [compound 124] | 1 |
| 6.20 | – | Cc1ccnc(-c2cc(Nc3ccc(F)c(C(F)(F)F)c3)nn2CCC(=O)N(C)C)c1 [compound 23] | 2 |
| 6.62 | – | Cc1cc(-c2cc(Nc3ccc4c(c3)OC(F)(F)O4)nn2CCC(=O)N(C)C)ccn1 [compound 94] | 2 |
| 5.77 | – | CNC(=O)Cn1nc(Nc2ccc(F)c(F)c2)cc1-c1cc(C)nc(C)c1 [compound 55] | 2 |
| 6.63 | – | Cc1cc(-c2cc(Nc3ccc4c(c3)OC(F)(F)O4)nn2CC(=O)NCC2CC2)ccn1 [compound 95] | 2 |
| 5.57 | – | COc1cc(Nc2cc(-c3ccnc(C)c3)n(CC(=O)NC3CC3)n2)cc(C(F)(F)F)c1 [compound 104] | 3 |
| 6.74 | – | COCc1cc(-c2cc(Nc3ccc4c(c3)OC(F)(F)O4)nn2CCC(=O)N(C)C)ccn1 [compound 96] | 3 |
| 6.26 | 576 | CCNC(=O)Cn1nc(Nc2cccc(C(F)(F)F)c2)cc1-c1cc(C)nc(C)c1 [compound 155] | 2 |
| 5.75 | – | COc1cc(Cl)cc(Nc2cc(-c3ccnc(C)c3)n(CC(=O)NC3CC3)n2)c1 [compound 110] | 2 |
| 6.19 | – | CC[C@H](O)Cn1nc(Nc2cccc(Cl)c2)cc1-c1ccnc(COC)c1 [compound 136] | 1 |
| 5.61 | – | CNC(=O)Cn1nc(Nc2cccc(OC(F)(F)F)c2)cc1-c1ccnc(C)c1 [compound 35] | 2 |
| 5.73 | – | CCNC(=O)Cn1nc(Nc2cc(Cl)cc(OC)c2)cc1-c1ccnc(C)c1 [compound 108] | 2 |
| 6.68 | – | Cc1cc(-c2cc(Nc3ccc(F)c(F)c3)nn2CC(=O)NCC2CC2)cc(C)n1 [compound 57] | 2 |
| 6.46 | – | CNC(=O)Cn1nc(Nc2cccc(C(F)(F)F)c2)cc1-c1ccc2c(c1)OCCO2 [compound 76] | 4 |
| 5.97 | – | CC[C@H](O)Cn1nc(Nc2ccc(F)c(F)c2F)cc1-c1ccnc(COC)c1 [compound 121] | 2 |
| 6.35 | – | Cc1cc(-c2cc(Nc3cccc(Cl)c3)nn2CCC(=O)N(C)C)ccn1 [compound 146] | 2 |
| 6.07 | 643 | CCNC(=O)Cn1nc(Nc2cc(F)c(F)c(F)c2)cc1-c1ccnc(C)c1 [compound 128] | 2 |
| 5.96 | – | Cc1cc(-c2cc(Nc3ccc(F)c(F)c3)nn2CCC(=O)N(C)C)cc(C)n1 [compound 119] | 2 |
| 5.64 | – | CNC(=O)Cn1nc(Nc2ccc3c(c2)OC(F)(F)O3)cc1-c1ccncc1 [compound 86] | 3 |
| 6.18 | – | COc1ccc(-c2cc(Nc3ccc(F)c(F)c3)nn2CCC(=O)N(C)C)c(Cl)c1 [compound 12] | 0 |
| 6.12 | – | CCNc1cc(-c2cc(Nc3ccc(F)c(F)c3F)nn2C[C@@H](O)CC)ccn1 [compound 135] | 1 |
| 6.33 | 856 | CCNC(=O)Cn1nc(Nc2ccc(F)c(C(F)(F)F)c2)cc1-c1cc(C)nc(C)c1 [compound 152] | 2 |
